Measured values as given in US20220364181A1, “METHOD AND A KIT FOR PREDICTING THE SUSCEPTIBILITY TO STIMULATOR OF INTERFERON GENES (STING) AGONISTS IN A CANCER PATIENT” (China Medical University, priority 2021, published 2022).

Experiments:
[1] = test system: EMT6 cell line; assay: In vitro assay for susceptibility to STING agonists, ELISA of interferon β, EMT6; type: cell-based, mouse; conditions: EMT6 MTAP(−) cells compared with MTAP(+) cells, 100 μg/mL STING agonist, 24 hours
Method: (§1) Two cancer cell lines, the mouse mammary carcinoma cell line EMT6 and the mouse colon adenocarcinoma cell line MC38, were used in the present invention as the models of cell assays.
(§2) These two cancer cell lines were divided into two groups, one group was treated with cell culture medium, and named as MTAP (+); the other group was treated with siRNA of the S-methyl-5′-thioadenosine phosphorylase (MTAP) for gene knock-out, and named as MTAP(−).
In the present invention, two cancer cell lines (EMT6 cell line and MC38 cell line) of MTAP (+) and MTAP (−) were stimulated with STING agonists, and then the expression level of Type I Interferon was measured to determine the activity of the STING agonists. […]
(§3) The cells were harvested, and a portion of the cells was used for enzyme-linked immunosorbent assay (ELISA) to detect the expression level of interferon β (IFN β); the other portion was used for extraction of mRNA with TRizol, and then real-time quantitative reverse transcription polymerase chain reaction (RT-qPCR) was used to amplify its DNA fragments for detecting the gene expression levels of the interferon beta gene (IFNb1) and interferon-stimulated genes MX1 and ISG15.

[2] = test system: MC38 cell line; assay: In vitro assay for susceptibility to STING agonists, ELISA of interferon β, MC38; type: cell-based, mouse; conditions: 100 μg/mL STING agonist, 24 hours
Method: as §1, §2
In the present invention, two cancer cell lines (EMT6 cell line and MC38 cell line) of MTAP (+) and MTAP (−) were stimulated with STING agonists, and then the expression level of Type I Interferon was measured to determine the activity of the STING agonists.
The STING agonists used in the present invention included MIW815 and E7766, and two cells were divided into six groups, respectively, the MTAP(+) Control Group, the MTAP(−) Control Group, MTAP(+) MIW815 Group, MTAP(+) E7766 Group, MTAP(−) MIW815 Group and MTAP(−) E7766 Group.
In this assay, after culturing the EMT6 cell line and the MC38 cell line for 12 hours, the medium of the cells in the MTAP(+) STING Group and the MTAP(−) STING Group were replaced with a medium containing 100 μg/mL of STING agonists, and then subjected to stimulation for 24 hours.
as §3

[3] = test system: EMT6 cell lines; assay: Animal experiment, tumor size of mice inoculated with EMT6 cell lines; type: in vivo
Method: In the present invention, the EMT6 cell lines with expressed MTAP (MTAP(+) Group) and the EMT6 cell lines with no expressed MTAP (MTAP(−) Group) were inoculated into mice for in vivo assays of the activity of STING agonists.
In this experiment, MIW815 was selected as the STING agonist, and the mice were divided into 4 groups, 5 mice in each group, namely the MTAP(+) Control Group, the MTAP(−) Control Group, the MTAP(+) MIW815 Group and the MTAP(−) MIW815 Group.
Drugs were administered after the cancer cells grew to be more than 100 mm^3. Phosphate buffered saline solution (PBS) was given to the MTAP(+) Control Group and the MTAP(−) Control Group; and 50 μg of STING agonist MIW815 was given to the MTAP(+) MIW815 Group and the MTAP(−) MIW815 Group at Day 9, 12 and 16.

[4] = MC38 MTAP(−) cells compared with MTAP(+) cells

| SMILES | expression of interferon β (IFN β), ELISA [1] | expression of interferon β (IFN β), ELISA ([2]; MC38 MTAP(+) cells) | expression of interferon β (IFN β), ELISA [2, 4] | tumor size ([3]; EMT6 MTAP(+) tumors, 50 μg at Day 9, 12 and 16, compared with MTAP(+) Control Group (PBS)) | tumor size ([3]; EMT6 MTAP(−) tumors, 50 μg at Day 9, 12 and 16, compared with MTAP(−) Control Group (PBS)) |
| --- | --- | --- | --- | --- | --- |
| Nc1ncnc2c1ncn2[C@@H]1O[C@@H]2COP(=O)([S-])O[C@@H]3[C@H](O)[C@@H](COP([O-])(=S)O[C@H]2[C@H]1O)O[C@H]3n1cnc2c(N)ncnc21.[Na+].[Na+] (some centres unmarked) [MIW815] | significantly lower | effectively stimulated the expression of IFN 13 | significantly lower | significantly smaller | not statistically different |
| O=[P@]1(S)OC[C@H]2O[C@@H]3[C@H](F)[C@@H]2O[P@](=O)(S)OC[C@H]2O[C@H]([C@H](F)[C@@H]2O1)n1cnc2c(ncnc21)NC/C=C/CNc1ncnc2c1ncn23 [E7766] | significantly lower | effectively stimulated the expression of IFN 13 | significantly lower | – | – |
